Like-named read-outs stand apart in the source and are kept apart here. Positions of bridges follow the written chain, without caps; N, C: chain ends. Residues, ends and D or L forms follow the SMILES beside them. *: point of attachment. X2 = CC(CCC(C)C(=O)*)C(=O)OCC(=O)[C@@]12O[C@H](C3CCCCC3)O[C@@H]1C[C@H]1[C@@H]3CCC4=CC(=O)C=C[C@]4(C)[C@H]3[C@@H](O)C[C@@]12C
Assays:
[1] = system: IL-6; format: in vivo, rats; details: Dex 1274 and 127 nmol/kg IV; dCIC 1274 nmol/kg IA or 127 nmol/kg IV; conjugate 127, 51 and 13 nmol/kg IV; four hours after IL-1β
Experimental: In this example, an IL-1β Challenge rat model was used for the evaluation of peptides-drug conjugates. In this model, IL-1β is injected intra-articularly (i.e., IA) into a single knee joint to induce an inflammatory state that can be quantified by measuring IL-6 levels in joint lavage fluid (EXAMPLE 30). The primary goal of using this model was to induce a localized inflammatory state in the joint, as opposed to the systemic inflammation induced in other models, as a way to differentiate localized delivery of dCIC to the joint from systemic administration of the steroid. […] CBC counts were used to assess any reductions in various white blood cell levels, which are established markers of systemic exposure to glucocorticoids. […]
IL-6 was measured in knee lavage fluid using a Luminex assay and levels were normalized to total protein in the lavage fluid (FIG. 24). […] Terminal synovial fluid was collected from all animals and analyzed by Luminex 200 for IL-6 cytokine concentrations using EMD Milliplex MAP Rat Cytokine/Chemokine Magnetic Panel ([sequence]-65K). […] Thymus and spleen were harvested and their organ weights determined.

[2] = Solubility for formulation; format: physicochemical; details: aqueous formulation for systemic delivery
Description: This study was designed to test whether dCIC delivered by a peptide would enable local suppression of inflammation in the joint while reducing systemic exposure to dCIC compared to that obtained when dosing therapeutic levels of dCIC alone. To enable systemic delivery of dCIC (unconjugated), it was formulated in 40% propylene glycol and then heated in order to solubilize the molecule. […] The peptide-drug conjugates of the disclosure can have a water solubility that allows conjugates to be formulated for systemic delivery, wherein at least some of the drugs used in the peptide-drug conjugates may not have sufficient water solubility for systemic administration when not conjugated to peptide. The conjugates comprising those drugs can home, target, migrate to, accumulate in, bind to, be retained by, or be redirected to a cartilage of a subject.

[3] = Hydrolysis assay of peptide-drug conjugates in rat plasma (free drug by LC/MS); format: in vitro ADME; details: rat plasma, 37° C., read-out: half-life (in vitro hydrolysis, free dCIC) (converted)
[4] = IL-1β challenge rat model, dose-ranging study: CBC, organ weights, tolerability; format: in vivo, rats
Experimental: IL-6 was measured in knee lavage fluid using a Luminex assay and levels were normalized to total protein in the lavage fluid (FIG. 24). Assessment of the PD inflammatory marker IL-6 in the knee joints of rats challenged with IL-1β was performed. Terminal synovial fluid was collected from all animals and analyzed by Luminex 200 for IL-6 cytokine concentrations using EMD Milliplex MAP Rat Cytokine/Chemokine Magnetic Panel ([…]-65K). […] Doses are listed as nmol/kg The masses of these doses are given below in TABLE 16. Two hours and forty-five minutes (i.e., 2.75 hrs) after administration of the test agents, animals were gently heated and blood was drawn from the tail vein for CBC analysis. Animals were then anesthetized with inhaled isoflurane and injected with 30 ng of IL-1β into the right knee (except for no IL-1β group). Four hours after administration of IL-1β (seven hours after administration of test agent) the animals were euthanized. Blood was drawn for a second CBC analysis and the right knee was lavaged for detection of IL-6 in the lavage fluid using a Luminex assay. Thymus and spleen were harvested and their organ weights determined.
In the same animals for which IL-6 secretion was measured, CBC data (e.g., lymphocyte counts) were also analyzed (FIG. 25) at an early time-point, 2.75 hrs post administration of the test article (FIG. 25A), and at euthanasia 7 hrs post administration (FIG. 25B). All treatments were administered as described above for the measurement of IL-6 secretion.
All treatments and test articles were administered as described above, except for an additional treatment group that received 510 nmol/kg of the peptide-drug conjugate peptide(SEQ ID NO: 105)-DMA-dCIC.

[5] = system: CIA rats; format: in vivo; details: 0.2 mg/kg on study day 0 and day 1
Experimental: A study was conducted in CIA rats to address the following: 1) functionality and duration of effect for peptide(SEQ ID NO: 105)-carbamate-Dex at 0.2 mg/kg as compared to Dex alone at the same dose; 2) functionality and duration of effect for peptide(SEQ ID NO: 105)-DMA-Dex at 0.05 mg/kg as compared to Dex alone at the same dose; 3) systemic markers of Dex exposure in rats treated with each PDC and Dex at their respective doses (FIG. 16B-FIG. 16G).
CIA was induced as described above in EXAMPLE 21. Rats were enrolled in the study following onset of arthritis in at least one ankle and randomly assigned into one of five treatment groups (vehicle; peptide-carbamate 0.2 mg/kg; Dex 0.2 mg/kg; peptide-DMA conjugate 0.05 mg/kg; Dex 0.05 mg/kg) with 5 rats per group. Treatment was administered on study day 0 and study day 1 and rats were euthanized on study day 7. The primary read-out in this cohort was change in ankle diameter during and after treatment, as a measure of functionality and duration of effect. […] The primary read-out for this cohort was measures of systemic exposure to Dex which included thymus weight, spleen weight, total white blood cell counts, lymphocyte counts, and change in body weight.

[6] = Systemic markers for glucocorticoid exposure in normal rats; format: in vivo; details: normal female Lewis rats
Experimental: In order to evaluate markers of systemic dexamethasone exposure in normal rats, time points were selected to simulate drug administration for studies (e.g., dosing on days 10 and 11, euthanize on day 12 or dosing on days 11-14 and euthanize on day 14). […] Rats were euthanized 24 hours after the second dose, or 5 hours after the fourth dose. Body weight was measured daily. At euthanasia, liver, spleen, thymus, and kidney weights were recorded and blood was collected for CBC and serum chemistry analysis. To establish the CIA model, female Lewis rats were inoculated with an intradermal injection of bovine collagen II on day 0 and a challenge dose was administered on day 7. Ankle and knee joint diameters were measured daily. Rats were euthanized on day 10, day 12 and day 14 at which time liver, spleen, thymus, and kidney weights were recorded and blood was collected for complete blood count (CBC)/blood chemistry analysis.

[7] = system: CIA rats
Experimental: Arthritis was induced in 9-week-old female Lewis rats (Envigo or Charles River Laboratories) by intradermal injection while anesthetized of 400 ug bovine type II collagen (Chondrex Inc, Redmond Wash.) in 2 adjacent 200 ul (1 mg/ml) doses on day 0. Collagen is prepared for injection by dissolving at 2 mg/ml in 0.01N glacial acetic acid in sterile water and rocking at 4° C. overnight then emulsifying in Freund's incomplete adjuvant (IFA, Sigma Aldrich). To emulsify, equal volumes of collagen solution and IFA are drawn up into separate syringes, which are joined by a 3-way stopcock. While on ice, the collagen and IFA are mixed by pressing between the two syringes rapidly for 10 minutes. Quality of the emulsification is tested after 10 minutes of mixing by dropping a small amount of mixture in water. A properly emulsified solution will remain as a discrete droplet and not disperse in the water. On day 7, rats are challenged with a second intradermal injection of 100 ug of collagen in 100 ul, 1 mg/ml, collagen in IFA solution prepared fresh. Body weight and ankle diameter measurements are recorded daily from day 7 through the end of the study. Ankle diameter was measure by a single researcher using a Fowler Digitrix 2 micrometer. Three measurements of each ankle were taken of the lateral dimension at the tarsus of lightly anesthetized rats. The reported ankle diameter measurement is the mean of the three measurements.
Arthritis was induced as described in four cohorts of 9-week-old female Lewis rats. Rats were randomly placed in treatment groups, balancing compound and dose groups across cohorts. […] Rats were dosed by tail vein injection on days 11 and 12 and euthanized on day 13 by CO2 asphyxiation. Immediately after cessation of respiratory movement, blood was collected by cardiac puncture, synovial fluid was collected from both knees, one hind limb was fixed in formalin and the alternate ankle was frozen on dry ice. Thymus, spleen, liver, and kidney weights were recorded.
CIA Response study design.
The aim of the study was to test the 4 conjugates with various linkers at two different doses in vivo in CIA rats to assess the following: ability to deliver sufficient dexamethasone to the joint to show functionality and potential therapeutic effect in the disease model.
CIA was induced in female Lewis rats (as described above, see EXAMPLE 21). Body weight and ankle joint diameters were measured on day 0 and then daily from day 7 until euthanasia. […] At euthanasia, synovial fluid was collected from both knees, one hind limb was fixed in formalin and the alternate ankle was frozen on dry ice. Thymus, spleen, liver, and kidney weights were recorded. Blood samples were submitted for CBC/Chemistry analysis, and the remaining plasma was frozen.

[8] = system: IL-6; details: 30 or 3 μg, 4 h
Experimental: After 4 h, IL-6 levels in synovial fluid of the same knee were measured by Luminex and normalized to protein content of the knee lavage.

[9] = 1 mg/kg/day for 2 days and 4 days
[10] = 1 mg/kg/day for 2 days or 4 days, vs vehicle and CIA rats

## CC[C@H](C)[C@@H]1NC(=O)[C@@H]2CSSC[C@H](NC(=O)[C@H](CCCNC(=N)N)NC(=O)[C@@H](NC(=O)[C@H](CC(N)=O)NC(=O)[C@@H](NC(=O)[C@@H]3CCCN3C(=O)[C@@H](NC(=O)CNC(=O)[C@H](CO)NC(=O)CNC(=O)C(C)CCC(C)C(=O)OCC(=O)[C@@]34O[C@H](C5CCCCC5)O[C@@H]3C[C@H]3[C@@H]5CCC6=CC(=O)C=C[C@]6(C)[C@H]5[C@@H](O)C[C@@]34C)C(C)C)[C@@H](C)CC)C(C)C)C(=O)N[C@@H](CCCNC(=N)N)C(=O)NCC(=O)N[C@@H](CO)C(=O)N[C@@H](CCCNC(=N)N)C(=O)N[C@@H](CC(=O)O)C(=O)N[C@H]3CSSC[C@H](NC(=O)[C@H](CCCNC(=N)N)NC(=O)[C@H](CO)NC(=O)[C@H](CC(N)=O)NC1=O)C(=O)N[C@@H](Cc1c[nH]cn1)C(=O)N[C@H](C(=O)N[C@H](C(=O)N1CCC[C@H]1C(=O)O)[C@@H](C)O)CSSC[C@H](NC(=O)[C@@H]1CCCN1C(=O)[C@H](CC(=O)O)NC(=O)[C@H](CC(C)C)NC3=O)C(=O)N[C@@H](CCCNC(=N)N)C(=O)N[C@@H](CCCNC(=N)N)C(=O)N[C@@H](C)C(=O)NCC(=O)N[C@@H](CCSC)C(=O)N[C@@H](CCCNC(=N)N)C(=O)N[C@@H](Cc1ccccc1)C(=O)NCC(=O)N[C@@H](CCCNC(=N)N)C(=O)N2 (stereo partly drawn) [Compound 46, peptide(SEQ ID NO: 105)-DMA-dCIC] (X2-GSGVPINVRCRGSRDCLDPCRRAGMRFGRCINSRCHCTP-OH; disulfide 10-30, 16-35, 20-37 (inferred); C-terminus assumed)
[1]
  IL-6 concentration in knee lavage fluid normalized to total protein, compared to vehicle: clear reduction in IL-6 concentration
[2]
  solubility: soluble in PBS
[3]; first assay, acetonitrile extraction of dCIC
  half-life at 0.25 mg/mL: 8.5 h
[3]; second assay, ethyl acetate extraction of dCIC
  half-life at 0.25 mg/mL: 5 h
[4]; 2.75 hours post-treatment
  monocytes (CBC): dose-dependent increase
[4]; 2.75 hours post-treatment, higher doses
  neutrophils (CBC): dose-dependent increase
[4]; 2.75 hrs post administration, equimolar dose of 127 nmol/kg
  effect on lymphocyte counts as compared to Dex and dCIC alone: less effect on lymphocyte counts
[4]; 7 hours post administration
  spleen and thymus weights at euthanasia: minimal effect on the weight of both organs
[4]; highest dose group (1274 nmol/kg IV)
  mortality: died within 30 minutes of dosing
[4]; lower effective doses (13-51 nmol/kg)
  CBC counts and all observations: normal
[4]; second highest dose group (510 nmol/kg), within 30-90 minutes of dosing
  mortality: three out of five animals

## Dexamethasone sodium phosphate [DexSP]
[5]
  ankle inflammation / ankle diameter as compared to vehicle: highly effective in reducing ankle diameter to baseline levels
[6]; 1 mg/kg/day
  other liver enzymes: no significant changes
  red blood cell (RBC) count, hematocrit, neutrophil, monocyte or eosinophil counts: no significant changes
[6]; [9]
  absolute lymphocyte count: decreased
  total white blood cell (WBC) count: decreased
[6]; 1 mg/kg/day for 2 days or 4 days
  Body weight: declined
[6]; [10]
  spleen weight: significantly decreased
  thymus weight: significantly decreased
[6]; 4 doses of 1 mg/kg/day
  Nucleated RBCs: detected in four of the five rats
[7]; 0.2 mg/kg and 0.5 mg/kg dose
  spleen weight: reduction
  thymus weight: reduction
  total body weight: reduction
[7]; 0.2 mg/kg dose
  change in median ankle diameter between day 11 and day 13 as compared to vehicle: did not reach statistical significance
[7]; 0.2 mg/kg dose groups
  reduction in thymus weight as compared to vehicle: statistically significant
[8]; administered IA (co-injected with IL-1b)
  IL-6 secretion in synovial fluid: no decrease
[8]; administered IV
  IL-6 secretion in synovial fluid: some decrease
[4]; 2.75 hours post-treatment
  monocytes (CBC): dose dependent decrease
[4]; 2.75 hrs post administration, Dex both doses, dCIC IA or IV
  Lymphocyte counts as compared to vehicle control: substantial reduction in lymphocyte counts
[4]; 7 hours post administration, all dose levels
  Lymphocyte counts at euthanasia: lower at 7 hours as compared to 2.75 hours

Source: patent US20210252159A1, “CONJUGATES OF CARTILAGE-HOMING PEPTIDES” (priority 2018, published 2021)
